Four molecules from patent US5922708A, “Heteroaryl-oxazolidinones” (Bayer Aktiengesellschaft, priority 1996, dated 1999) can be followed below.

Molecules are shown by their SMILES. Converted amounts (≈) assume the structure as drawn. Where two headings read alike, the source gives them in different places.

What all share (assay type): cell-based
The test system of one test is Klebs. 57 USA. Description: MIC by serial dilution method on Iso-Sensitest agar. As for the experimental part:
(§1) The minimum inhibitory concentrations (MIC) were determined by the serial dilution method on Iso-Sensitest agar (Oxoid). For each test substance a series of agar plates were prepared which contained decreasing concentrations of the active substance, obtained by twofold dilution from one plate to the next. The agar plates were inoculated with a Multipoint inoculator (Denley). Inoculation was effected using overnight cultures of the pathogens which had been diluted beforehand so that each inoculation point contained ca. 10^4 colony forming particles. The inoculated agar plates were incubated at 37° C. and the bacterial growth was evaluated after ca. 20 hours. The MIC value (μg/ml) indicates the lowest active substance concentration at which no growth was detectable with the naked eye.

A further test deals with Staph. 48N. The description is as above. As for the experimental part:
as §1

In another test the test system is Staph. 25701. Described as above. As for the experimental part: as §1
The next test concerns E. coli Neumann. The description is as above. The following applies: Escherichia coli. On the procedure:
as §1

The subject of another test is Psdm. Bonn. Described as above. As for the experimental part: as §1
Another test has as its system Staph. 9TV. The description is as above. On the procedure: as §1
The test system of another test is Staph. 133. The description is as above. As for the experimental part:
as §1

Test [1] has as its system Mycobacterium smegmatis DSM 43078. The experiment in a line: MIC for rapidly growing mycobacteria, broth microdilution method. The following applies: Mycolicibacterium smegmatis, DSM43078, inoculum 4.20E + 04 [/ml], 37° C., 2-4 days. On the procedure: For rapidly growing mycobacteria the MIC were determined on the basis of the broth microdilution method described by Swenson [cf. J. M. Swenson, C. Thomberry, U. A. Silcox, Rapidly growing mycobacteria. Testing of susceptibility to 34 antimicrobial agents by broth microdilution. Antimicrobial Agents and Chemotherapy, vol. 22, 186-192 (1982)]. The brain-heart extract medium treated with 0.1 vol.% of Tween 80 was an exception.
The mycobacterial strains used were obtained from the DSM (Deutsche Sammlung von Mikroorganismen (German Collection of Microorganisms), Brunswick). They were incubated in a moist chamber at 37° C.
The MIC values were evaluated after 2-4 days, when the preparation-free controls were opaque due to growth.

The mark [2] stands for this setting: Klebs. 57 USA, agar, 37° C., ca. 20 hours, read-out: MIC.
Setting [3] is: Staph. 48N, agar, 37° C., ca. 20 hours, read-out: MIC.
[4] abbreviates: Staph. 25701, agar, 37° C., ca. 20 hours, read-out: MIC.
Setting [5] is: E. coli Neumann, agar, 37° C., ca. 20 hours, read-out: MIC.
Where [6] appears, read: Staph. 9TV, agar, 37° C., ca. 20 hours, read-out: MIC.
[7] abbreviates: Staph. 133, agar, 37° C., ca. 20 hours, read-out: MIC.

What is called MIC is the least concentration at which growth counts as inhibited. Consider `O=C(CF)NC[C@H]1CN(c2ccc(-c3cccnc3)s2)C(=O)O1` [Example 18], for which the MIC against Klebs. 57 USA (20 h) was more than 64 µg/mL; with Staph. 48N (20 h), 4 µg/mL (≈ 11.9 µM); in the test on Staph. 25701 (20 h) it was 4 µg/mL (≈ 11.9 µM); against E. coli Neumann (20 h), more than 64 µg/mL; against Psdm. Bonn (20 h), more than 64 µg/mL; in the test with Staph. 9TV (20 h), 1 µg/mL (≈ 2.98 µM). This molecule also had an MIC in the test on Staph. 133 (20 h) of 2 µg/mL (≈ 5.96 µM).

On to `CCCOC(=O)NC[C@H]1CN(c2ccc(-c3cccnc3)s2)C(=O)O1` [Example 20], for which the MIC in the test on Klebs. 57 USA (setting [2]) is more than 64 µg/mL; in the test on Staph. 48N (setting [3]), 2 µg/mL (≈ 5.53 µM); in the test with Staph. 25701 (setting [4]), 2 µg/mL (≈ 5.53 µM); in the test with E. coli Neumann (setting [5]) it was more than 64 µg/mL; in the test with Psdm. Bonn (Psdm. Bonn, agar, 37° C., ca. 20 hours, read-out: MIC), more than 64 µg/mL; in the test with Staph. 9TV (setting [6]), 2 µg/mL (≈ 5.53 µM). Besides, the MIC in the test on Staph. 133 (setting [7]) came out at 2 µg/mL (≈ 5.53 µM).

As for `COC(=O)NC[C@H]1CN(c2ccc(Br)c(C)n2)C(=O)O1` [Example 25], the MIC in the test on Klebs. 57 USA (setting [2]) was more than 64 µg/mL; in the test on Staph. 48N (setting [3]), 2 µg/mL (≈ 5.81 µM); in the test with Staph. 25701 (setting [4]), 2 µg/mL (≈ 5.81 µM); in the test with E. coli Neumann (setting [5]) it was more than 64 µg/mL; in the test on Staph. 9TV (setting [6]), 1 µg/mL (≈ 2.91 µM); with Staph. 133 (setting [7]), 2 µg/mL (≈ 5.81 µM).

For the molecule `NNC(=O)c1ccncc1` [Isoniazid], the MIC in test [1] worked out at 2 µg/mL.
